Experimental data as given in patent US5234932A, “Substituted quinolines and leucotriene antagonism treatment therewith” (Leo Pharmaceutical Products ltd., priority 1989, dated 1993).
pIC50: −log10 of the molar value. Counter-ions that a name gives are not always drawn.

Experiments:
LTD4 receptor = molecular target: T1, LTD4 receptor (Cavia porcellus, UniProt Q2NNR5); assay: [3H]LTD4 receptor binding, guinea-pig lung membranes, direct competition assay; settings: negative logarithm of the molar concentration inhibiting [3H]LTD4 binding by 50%
T1 construct: from tissue; host or cells: guinea-pig lung membranes
T1 sequence (Q2NNR5 1-340): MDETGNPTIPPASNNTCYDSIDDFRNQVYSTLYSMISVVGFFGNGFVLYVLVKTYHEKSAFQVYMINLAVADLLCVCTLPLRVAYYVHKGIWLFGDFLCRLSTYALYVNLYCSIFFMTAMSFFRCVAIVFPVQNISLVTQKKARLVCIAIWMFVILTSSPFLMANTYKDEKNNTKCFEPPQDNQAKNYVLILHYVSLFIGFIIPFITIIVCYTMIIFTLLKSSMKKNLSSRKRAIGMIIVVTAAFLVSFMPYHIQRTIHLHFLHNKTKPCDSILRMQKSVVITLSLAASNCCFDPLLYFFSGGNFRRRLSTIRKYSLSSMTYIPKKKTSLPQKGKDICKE
Text: It is of importance to investigate the receptor binding properties of leukotriene antagonists in relation to their pKB values (13), i.e. to correlate antagonist receptor blocking with inhibition of smooth muscle contraction. Receptor binding studies may be performed with guinea-pig lung membranes in a direct competition assay between a leukotriene antagonist and [^3 H]LTD4 for binding to the LTD4 receptor (10,13).

[1] = molecular target: T2, guinea-pig tracheal strips (LTD4) (Cavia porcellus, UniProt Q2NNR5); assay: leukotriene antagonism on guinea-pig tracheal strips (LTD4 concentration-response); assay type: cell-based; settings: negative logarithm of the antagonist dissociation constant, -log([antagonist]/(dose ratio -1)), indomethacin present
T2 construct: from tissue; host or cells: guinea-pig tracheal strips
T2 sequence (Q2NNR5 1-340): T1 sequence (Q2NNR5 1-340)
Text: Leukotriene antagonists may be further characterized using guinea-pig tracheal strips instead of ileum strips (10). In this relevant in vitro model of human airways (11) tracheal strips are suspended in a physiological buffer containing indomethacin. A concentration-response curve to LTD4 is generated in the presence and absence of the leukotriene antagonists. From these curves the potency of a leukotriene antagonist may be expressed as the pKB value, the negative logarithm of the antagonist dissociation constant. The pKB value is determined as -log([antagonist]/(dose ratio -1)), where the dose ratio is defined as EC50 (presence of antagonist)/EC50 (absence of antagonist) and EC50 refers to the concentration of LTD4 eliciting 50% of the maximum response to LTD4 (12).

[2] = test system: guinea-pig ileum strips (LTD4); assay: inhibition of LTD4-induced contraction of guinea-pig ileum strips; assay type: cell-based; settings: LTD4 at 10^-9 M; compound added 2 minutes prior; atropine and indomethacin present
Procedure: Leukotriene antagonists may be identified by observing the contractions elicited in preparations of guinea-pig ileum strips suspended in a physiological buffer by addition of pure leukotriene D4 (LTD4) (10). The ileum strips are connected to an isotonic transducer, and the contractions are continuously recorded on a multichannel recorder. Before addition of LTD4, atropine and indomethacin are added to the buffer in order to block any cholinergic or prostaglandin mediated contractile effects. Test compounds to be studied with respect to leukotriene antagonism are dissolved in DMSO and added to the organ bath 2 minutes prior to addition of LTD4 at 10^-9 M (final concentration), the final concentration of DMSO being 0.1%, a concentration which can be shown not to affect the ileum response to LTD4. The test compounds may be added at various concentrations, often beginning at […] and then decreasing the concentration in case of antagonism.
When the compounds of the present invention were added to the ileum preparation before addition of LTD4 a significant inhibition occurred of the specific LTD4 -induced contraction. […] On other hand, contractions induced with histamine at 10^-7 M were not inhibited by these compounds even at micromolar concentrations.

5-lipoxygenase = molecular target: T3, 5-lipoxygenase (Rattus norvegicus, UniProt P12527); assay: 5-lipoxygenase activity in vitro (A23187-stimulated rat peritoneal cells, leukotriene B4 and 5-HETE production); assay type: cell-based; settings: final concentration of 10^-6 M; A23187 2×10^-6 M
T3 construct: LTB4 and 5-HETE measured by TLC
T3 sequence (P12527 1-673): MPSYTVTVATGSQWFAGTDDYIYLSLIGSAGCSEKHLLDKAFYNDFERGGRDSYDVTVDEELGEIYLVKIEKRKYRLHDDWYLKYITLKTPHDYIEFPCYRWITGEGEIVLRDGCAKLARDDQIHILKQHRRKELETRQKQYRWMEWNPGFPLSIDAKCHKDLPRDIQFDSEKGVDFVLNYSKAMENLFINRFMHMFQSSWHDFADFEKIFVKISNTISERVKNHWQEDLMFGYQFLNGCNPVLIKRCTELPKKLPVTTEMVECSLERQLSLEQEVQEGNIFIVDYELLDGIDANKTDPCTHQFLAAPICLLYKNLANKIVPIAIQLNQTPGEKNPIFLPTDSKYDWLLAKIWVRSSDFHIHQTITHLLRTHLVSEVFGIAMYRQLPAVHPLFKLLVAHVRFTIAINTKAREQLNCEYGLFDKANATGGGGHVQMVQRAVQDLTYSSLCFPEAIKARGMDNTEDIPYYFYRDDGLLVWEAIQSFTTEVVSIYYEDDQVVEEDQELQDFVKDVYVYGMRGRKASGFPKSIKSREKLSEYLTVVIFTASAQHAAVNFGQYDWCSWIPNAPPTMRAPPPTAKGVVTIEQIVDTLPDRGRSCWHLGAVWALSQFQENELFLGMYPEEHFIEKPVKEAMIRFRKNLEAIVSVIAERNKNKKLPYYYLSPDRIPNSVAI
Procedure: The following method was used to assay 5-lipoxygenase activity in vitro: Rat peritoneal cells were harvested by i.p. injection of 10 ml Hank's balanced salt solution (GIBCO, cat No. 4025, U.S.A.) containing 12.5 U/ml sodium heparin (Leo, Denmark) in anaesthesized rats. The resulting cell suspension, which mainly contained macrophages, was transferred to a test tube and washed twice by centrifugation (200 g, 10 min.) and resuspended in Hank's balanced salt solution containing 0.5% bovine serum albumin (BSA) (Sigma Chem. Co., U.S.A.). The cells from 9 rats were finally resuspended in Hank's balanced salt solution (with BSA) containing 5μCi [1-^14 C]arachidonic acid (The Radiochemical Centre, Amersham, U.K.) and incubated for 90 minutes at 37° C. This caused labelling of cell membrane phospholipids as radioactive arachidonic acid was incorporated in the 2-position of the glycerol moiety. Excess arachidonic acid was then removed by washing the cells twice as described above. The cells were finally resuspended in the same solution (without BSA) at 10^7 cells/ml. 475 μl of the cell suspension was preincubated at 37° C. for 5 minutes with either 5 μl dimethylsalphoxide (DMSO) (control tube), or 5 μl of a drug solution in DMSO. Then 20 μl of a mixture of equal volumes of the calcium ionophore A23187, 10^-4 M in ethanol (Calbiochem, U.S.A.), and 0.4M CaCl2 in water was added. The final concentration of A23187 was thus 2×10^-6 M, and of Ca^++ 8 mM. After 5 minutes of incubation the tubes were transferred to an ice-bath and centrifuged for 10 minutes at 3,000 g (4° C.). An aliquot of the supernatant was counted by liquid scintillation spectrometry in order to calculate the total radioactive release induced by A23187 in presence of drugs. A decrease in radioactive release was taken as indication of phospholipase A2 inhibition. The supernatant was then extracted with ethyl acetate (2 ml), adjusted to pH 3 with 1N HCl and further extracted with 2 ml ethyl acetate. The combined extracts were evaporated to dryness in vacuo, the residue was redissolved in a small volume of methanol and applied by means of a Desaga Autospotter™ to a silica-gel coated thin-layer plate fitted with a polar concentrating zone (Merck Art. 11798, Darmstadt, F.R.G.). The plates were developed in the organic layer of the solvent mixture ethyl acetate/acetic acid/iso-octane/water (55:10:25:50). Radioactive spots were detected by autoradiography (AGFA-GEVAERT, Osray-RPI X-ray film, Belgium), and changes induced by drugs in the metabolic pattern of arachidonic acid were quantified by a laser densitometer (LKB, Ultroscan ™2202, Bromma, Sweden) in combination with an integrating computer (SP 4100, Spectra-Physics, San Jose, Calif., U.S.A.). […]

cyclooxygenase = assay: synthesis of cyclooxygenase products in A23187-stimulated rat peritoneal cells; assay type: cell-based; settings: final concentration of 10^-6 M
Procedure: The following method was used to assay 5-lipoxygenase activity in vitro: Rat peritoneal cells were harvested by i.p. injection of 10 ml Hank's balanced salt solution (GIBCO, cat No. 4025, U.S.A.) containing 12.5 U/ml sodium heparin (Leo, Denmark) in anaesthesized rats. The resulting cell suspension, which mainly contained macrophages, was transferred to a test tube and washed twice by centrifugation (200 g, 10 min.) and resuspended in Hank's balanced salt solution containing 0.5% bovine serum albumin (BSA) (Sigma Chem. Co., U.S.A.). The cells from 9 rats were finally resuspended in Hank's balanced salt solution (with BSA) containing 5μCi [1-^14 C]arachidonic acid (The Radiochemical Centre, Amersham, U.K.) and incubated for 90 minutes at 37° C. This caused labelling of cell membrane phospholipids as radioactive arachidonic acid was incorporated in the 2-position of the glycerol moiety. Excess arachidonic acid was then removed by washing the cells twice as described above. The cells were finally resuspended in the same solution (without BSA) at 10^7 cells/ml. 475 μl of the cell suspension was preincubated at 37° C. for 5 minutes with either 5 μl dimethylsalphoxide (DMSO) (control tube), or 5 μl of a drug solution in DMSO. Then 20 μl of a mixture of equal volumes of the calcium ionophore A23187, 10^-4 M in ethanol (Calbiochem, U.S.A.), and 0.4M CaCl2 in water was added. The final concentration of A23187 was thus 2×10^-6 M, and of Ca^++ 8 mM. After 5 minutes of incubation the tubes were transferred to an ice-bath and centrifuged for 10 minutes at 3,000 g (4° C.). An aliquot of the supernatant was counted by liquid scintillation spectrometry in order to calculate the total radioactive release induced by A23187 in presence of drugs. A decrease in radioactive release was taken as indication of phospholipase A2 inhibition. The supernatant was then extracted with ethyl acetate (2 ml), adjusted to pH 3 with 1N HCl and further extracted with 2 ml ethyl acetate. The combined extracts were evaporated to dryness in vacuo, the residue was redissolved in a small volume of methanol and applied by means of a Desaga Autospotter™ to a silica-gel coated thin-layer plate fitted with a polar concentrating zone (Merck Art. 11798, Darmstadt, F.R.G.). The plates were developed in the organic layer of the solvent mixture ethyl acetate/acetic acid/iso-octane/water (55:10:25:50). Radioactive spots were detected by autoradiography (AGFA-GEVAERT, Osray-RPI X-ray film, Belgium), and changes induced by drugs in the metabolic pattern of arachidonic acid were quantified by a laser densitometer (LKB, Ultroscan ™2202, Bromma, Sweden) in combination with an integrating computer (SP 4100, Spectra-Physics, San Jose, Calif., U.S.A.).
These cells produced measurable amounts of radioactive 6-keto-prostaglandinF1α, thromboxane B2, prostaglandin D2, hydroxyheptadecatrienoic acid (HHT) (all cyclooxygenase products), 5-hydroxyeicosatetraenoic acid (5-HETE) and leukotriene B4 (both 5-lipoxygenase products).
At the same time, a decrease in synthesis of the cyclooxygenase products HHT, prostaglandin D2, thromboxane B2 and 6-ketoprostaglandin F1α was not observed. This pattern of drug activity is indicative of truly specific 5-lipoxygenase inhibition.

| SMILES | pIC50 (LTD4 receptor) | Kb [1] [nM] | concentrations at which inhibition of LTD4-induced contraction occurred [2] | decrease in the production of 5-HETE (5-lipoxygenase) | decrease in the production of leukotriene B4 (5-lipoxygenase) | decrease in synthesis of the cyclooxygenase product 6-ketoprostaglandin F1α (cyclooxygenase) | decrease in synthesis of the cyclooxygenase product HHT (cyclooxygenase) | decrease in synthesis of the cyclooxygenase product prostaglandin D2 (cyclooxygenase) | decrease in synthesis of the cyclooxygenase product thromboxane B2 (cyclooxygenase) |
| --- | --- | --- | --- | --- | --- | --- | --- | --- | --- |
| O=C(O)C(Nc1cccc(OCc2ccc3ccccc3n2)c1)c1ccccc1 (racemic) [Example 15, (S,R)-2-[3-(2-Quinolylmethyloxy)-anilino]-2-phenyl acetic acid] | 7.80 | 1 | – | – | – | – | – | – | – |
| O=C(O)C(Nc1ccc(OCc2ccc3ccccc3n2)cc1)c1ccccc1 (racemic) [Example 17, (S,R)-2-[4-(2-Quinolylmethyloxy)-anilino]-2-phenyl acetic acid] | – | – | submicromolar range | – | – | – | – | – | – |
| O=C(O)[C@H](O)[C@H](Nc1cccc(OCc2ccc3ccccc3n2)c1)c1ccccc1 (relative stereo) [Example 1, (2R,3R;2S,3S)-3-[3-(2-Quinolylmethoxy)-anilino]-2-hydroxy-3-phenyl propionic acid, sodium salt] | 8.60 | 0.2 | – | – | – | – | – | – | – |
| CCOC(=O)[C@H](O)[C@H](Nc1cccc(OCc2ccc3ccccc3n2)c1)c1cccc(Cl)c1 (relative stereo) [Example 9] | – | – | – | significant and specific decrease | significant and specific decrease | not observed | not observed | not observed | not observed |
| CCOC(=O)[C@H](O)[C@H](Nc1ccc(OCc2ccc3ccccc3n2)cc1)c1ccccc1 (relative stereo) [Example 11, (2S,3R;2S,3S)-3-[4-(2-Quinolylmethyloxy)-anilino]-2-hydroxy-3-phenyl propionic acid ethyl ester] | – | – | – | significant and specific decrease | significant and specific decrease | not observed | not observed | not observed | not observed |
